# Test results: paper PMC7305236, “The atypical chemokine receptor ACKR3/CXCR7 is a broad-spectrum scavenger for opioid peptides” (Nature Communications, 2020)
# Read-outs that look alike come from different tables or passages of the source.
# How the values were obtained:
# Assay type in all cases: cell-based
# CXCR3A = biological target: T1, CXCR3A (Homo sapiens, UniProt P49682); assay: Figure S1a: screen of opioid peptides on CXCR3A; conditions: replicate 1
# T1 construct: expressed in transfected cells; host or cells: U87 cells
# T1 sequence (P49682 1-368): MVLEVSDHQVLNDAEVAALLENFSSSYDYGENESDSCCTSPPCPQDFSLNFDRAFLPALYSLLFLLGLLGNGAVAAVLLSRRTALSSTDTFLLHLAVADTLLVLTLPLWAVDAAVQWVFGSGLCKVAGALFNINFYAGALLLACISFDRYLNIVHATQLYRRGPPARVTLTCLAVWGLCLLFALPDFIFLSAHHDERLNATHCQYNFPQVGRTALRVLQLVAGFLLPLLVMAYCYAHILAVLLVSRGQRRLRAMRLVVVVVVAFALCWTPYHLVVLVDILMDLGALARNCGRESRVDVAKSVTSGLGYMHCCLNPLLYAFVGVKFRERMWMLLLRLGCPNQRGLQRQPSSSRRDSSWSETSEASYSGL
# CXCR4 = biological target: T2, CXCR4 (Homo sapiens, UniProt P61073)
# T2 construct: expressed in transfected cells; host or cells: U87, transient cotransfection of pNBe vectors
# T2 sequence (P61073 whole entry): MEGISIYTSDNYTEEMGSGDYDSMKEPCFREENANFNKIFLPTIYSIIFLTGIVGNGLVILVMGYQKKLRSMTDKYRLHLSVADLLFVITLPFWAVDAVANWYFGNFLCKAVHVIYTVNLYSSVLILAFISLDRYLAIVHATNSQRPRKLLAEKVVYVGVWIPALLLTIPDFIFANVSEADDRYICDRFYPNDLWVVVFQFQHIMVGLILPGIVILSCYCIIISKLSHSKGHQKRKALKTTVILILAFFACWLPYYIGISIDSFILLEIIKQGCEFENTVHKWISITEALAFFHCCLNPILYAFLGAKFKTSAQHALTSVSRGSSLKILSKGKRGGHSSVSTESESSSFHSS
# U87 = assay: Figure S6 EC50 comparison, U87 cells + chemokine; conditions: U87 cells + the labelled chemokine, titrated agonist not given, read-out: Ec50 (inset, Ec50 comparison)
# CXCR7 = biological target: T3, CXCR7 (Homo sapiens, UniProt P25106); assay: Figure S1a: screen of opioid peptides on CXCR7
# T3 construct: expressed in transfected cells; host or cells: U87 cells
# T3 sequence (P25106 whole entry): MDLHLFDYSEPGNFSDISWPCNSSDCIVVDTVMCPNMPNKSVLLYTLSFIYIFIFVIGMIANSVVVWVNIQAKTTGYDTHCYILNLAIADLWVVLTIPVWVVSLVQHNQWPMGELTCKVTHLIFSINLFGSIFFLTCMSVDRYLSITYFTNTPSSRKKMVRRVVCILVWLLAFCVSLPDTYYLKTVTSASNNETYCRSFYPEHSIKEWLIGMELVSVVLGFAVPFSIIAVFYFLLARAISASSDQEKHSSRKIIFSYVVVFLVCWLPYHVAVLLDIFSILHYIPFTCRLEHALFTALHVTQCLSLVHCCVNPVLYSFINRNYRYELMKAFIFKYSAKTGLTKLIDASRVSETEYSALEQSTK
# [1] = Figure 7g: values after +LIH383, +LIH inverse, +CXCL12, +CXCL10
# U87.ACKR3 = assay: Figure S6 EC50 comparison, U87.ACKR3 cells + chemokine; conditions: U87.ACKR3 cells + the labelled chemokine, titrated agonist not given, read-out: Ec50 (inset, Ec50 comparison)
# [2] = Figure 7f: response to FBS, CXCL12, opioid peptides and LIH383 relative to Medium; conditions: Medium about 1
# KOR [3] = biological target: T4, KOR (Homo sapiens, UniProt P41145); assay: Figure 6h, KOR, DMSO vs Bafilomycin treatment; set-up: expressed in transfected cells; host or cells: U87 (human glioblastoma); conditions: n = 3 or 4 as in cell
# T4 sequence (P41145 whole entry): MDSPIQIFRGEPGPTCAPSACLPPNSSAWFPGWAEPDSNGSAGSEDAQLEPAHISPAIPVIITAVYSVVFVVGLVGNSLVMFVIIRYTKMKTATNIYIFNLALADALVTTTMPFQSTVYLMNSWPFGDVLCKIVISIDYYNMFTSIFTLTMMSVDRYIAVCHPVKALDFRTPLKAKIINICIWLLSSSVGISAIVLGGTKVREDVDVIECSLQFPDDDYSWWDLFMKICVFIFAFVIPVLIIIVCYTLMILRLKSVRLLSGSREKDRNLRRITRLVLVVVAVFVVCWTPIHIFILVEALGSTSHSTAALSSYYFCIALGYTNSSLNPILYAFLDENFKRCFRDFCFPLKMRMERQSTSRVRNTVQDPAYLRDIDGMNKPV
# KOR [4] = biological target: T4, KOR; assay: Figure 6h, KOR level after ligand with DMSO or Bafilomycin; set-up: expressed in transfected cells; host or cells: U87 (human glioblastoma)
Substance,"Figure S1a value, CXCR3A (CXCR3A)","Figure S1a value, CXCR4 (CXCR4; replicate 1)","Figure S1a value, CXCR4 (CXCR4; replicate 2)",EC50 (U87; replicate 1),EC50 (U87; replicate 2),EC50 (U87; replicate 3),Figure 7g value ([1]; replicate 1),Figure 7g value ([1]; replicate 2),Figure 7g value ([1]; replicate 3),Figure 7g value ([1]; replicate 4),EC50 (U87.ACKR3; replicate 1),EC50 (U87.ACKR3; replicate 2),EC50 (U87.ACKR3; replicate 3),other results
CXCL10,79.87,64.0305,102.577,6.8 nM,9.32 nM,14 nM,43.9358,53.1833,71.6583,66.9981,17.2 nM,18.1 nM,19.3 nM,"Figure S1a value, CXCR7 (CXCR7; replicate 1): 93.7533; Figure S1a value, CXCR7 (CXCR7; replicate 2): 74.5914; EC50 (U87.ACKR3; replicate 4): 29.1 nM"
CXCL12,103.792,122.173,86.6576,2.9 nM,11 nM,6.04 nM,102.594,103.187,90.4001,88.8058,7.39 nM,9.3 nM,13.1 nM,"Figure 7f value ([2]; replicate 1): 0.8915; Figure 7f value ([2]; replicate 2): 0.9254; Figure 7f value ([2]; replicate 4): 0.9153; EC50 (U87; replicate 4): 5.61 nM; Mean ± SEM (Figure 6h, KOR) (KOR [3]; 'DMSO vs Bafilomycin treatment'): 112,6 ± 3,88, n=4; Mean ± SEM (Figure 6h, KOR) (KOR [3]; first of two columns under 'DMSO vs Bafilomycin treatment' (presumably DMSO)): 107,9 ± 5,673, n=4; KOR level after ligand (Figure 6h) (KOR [4]; Bafilomycin, replicate 1): 115.399; KOR level after ligand (Figure 6h) (KOR [4]; Bafilomycin, replicate 2): 101.029; KOR level after ligand (Figure 6h) (KOR [4]; Bafilomycin, replicate 3): 116.035; KOR level after ligand (Figure 6h) (KOR [4]; Bafilomycin, replicate 4): 117.81; KOR level after ligand (Figure 6h) (KOR [4]; DMSO, replicate 1): 95.0504; KOR level after ligand (Figure 6h) (KOR [4]; DMSO, replicate 3): 120.17; KOR level after ligand (Figure 6h) (KOR [4]; DMSO, replicate 4): 114.207"
